System: primary human T-cells
Assay: IL2 secretion measurements in CD3-stimulated T-cells
Type: cell-based
Conditions: Homo sapiens, T-cell, 24 h, CD3 condition; for Emax: IL2 after 24 hours, 20 μM reference compound A1 = 100%, read-out: Emax IL2 (% activation); for EC50: IL2 secretion after 24 hours, read-out: Tcell IL2 CD3 EC50
Description: As readouts for T-cell activation, IL2 secretion after 24 hours and proliferation after 5 days was measured. Increases in IL2 secretion and proliferation upon compound treatment were assessed as the % of the maximum of reference compound A1. WO 2016/139181 discloses reference compound A1 as example 70. As a counter screen and to make sure that no unwanted TCR-independent activation was triggered, PBS conditions were run for all compounds.
Expanded primary human T-cells were thawed and cultured in RPMI 1640 (Gibco, #61870-010)+5% human serum (HS, Sigma, #H3667)+1 mM Sodium Pyruvate (Gibco, #11360-039)+50 μM 2-mercaptoethanol (Gibco, #31350-010) and 1× Pen-Strep (Life Technologies, #15140122) medium at density of 2 Mio/ml for 3 hours in 5% CO2, 37° C. and 95% humidity. For coating of plates, […] or PBS++ with CD3 antibody (concentration depending on donor and determined by CD3 titrations) was added 100 μl/well to Poly-D Lysine coated 96-well plates. Plates were sealed and incubated at room temperature for 3 hours on a table-top rocking platform. After incubation, plates were washed once with PBS−− and filled with 40 μl/well culture medium only. Compounds were then added (see next section) to medium only plates. After 3 hours of culturing the T-cells, cells were filtered through a cell strainer (Miltenyi Biotech, #130-041-407), counted again and concentration was adjusted to 1.25 Mio/ml.
Cells were then seeded 80 μl/well to the 40 μl/well including dispensed compounds according to plate layout. By adding cells, compounds were further diluted 1:3, and resulting in 100k cells/120 µl/well. After 24 hours 40 μl of supernatant was collected carefully from the top while not disturbing the cells and transferred into a round bottom 96 well plate. Collected and frozen supernatant was used for detection of IL2 using the IL-2 Human ProQuantum Immunoassay Kit (Invitrogen) or using the Human IL-2 ELISA Kit (Thermo Fisher).
Compound Treatment Compounds were added in a 5 or 6 pt dose response with the Tecan D300e Digital Dispenser, all conditions 3 times more concentrated than the end-concentration, since cells are added afterwards (80p1 cells to 40p1 prepared medium with treatment). The DR was starting at 20 μM or 10 μM final top concentration and a dilution factor of 3.333. The positive control was the reference compound A1 that was added in a dose response as well, additionally to 3 wells of only 20 μM representing the positive stimulator control. All wells were normalized with DMSO to a final concentration of 0.6% (0.2% end-concentration).
The immunoassay is done following the manufacturer's manual (Invitrogen, #A35603).
Additional information: For the immunoassay, MicroAmp™ EnduraPlate™ Optical 384-Well plates are used. Frozen supernatant is thawed and centrifuged for 5 minutes at 1000×g, both steps at 4° C. After centrifugation, required sample amount is taken from the top, and in a separate LightCycler V-bottom plate (working plate) diluted with assay dilution buffer, dilution factor depending on the PBS or CD3 condition but at least 1:3. IL-2 standard and blanks are prepared in the same V-bottom plate, standard with a range of 0.0128-5000 pg/ml (extended version). After preparation, 5 μl of sample dilutions or standard/blanks are transferred to the optical 384-well plate (assay plate) and the 10 μl reaction protocol is being followed. For measurement, the QuantStudio 12K Flex system is used. Raw data is extracted and IL-2 concentrations are calculated with the Thermo Fisher online app (apps.thermofisher.com/apps/proquantum).
ELISA is done following the manufacturer's manual (Thermo Fisher Scientific, #88-7025-88). Additional information: For the ELISA Nunc MaxiSorp 96 well plates are used. Frozen supernatant is thawed and centrifuged for 5 minutes at 1000×g, both steps at 4° C. […]

| SMILES | EC50 [nM] | Emax [%] |
| --- | --- | --- |
| CC(C)(c1nnc(-c2ccc3c(c2)N(Cc2ccc(OCCC(F)(F)F)cc2)C(=O)[C@@H](N)CS3(=O)=O)o1)S(C)(=O)=O [Example 23, (3R)-3-amino-7-[5-(1-methyl-1-methylsulfonyl-ethyl)-1,3,4-oxadiazol-2-yl]-1,1-dioxo-5-[[4-(3,3,3-trifluoropropoxy)phenyl]methyl]-2,3-dihydro-1λ6,5-benzothiazepin-4-one] | 7330 | 62 |
| CC(C)(c1nnc(-c2cc3c(cc2F)S(=O)(=O)C[C@H](N)C(=O)N3Cc2ccc(OCC(F)(F)F)cc2)o1)S(C)(=O)=O [Example 24, (3R)-3-amino-8-fluoro-7-[5-(1-methyl-1-methylsulfonyl-ethyl)-1,3,4-oxadiazol-2-yl]-1,1-dioxo-5-[[4-(2,2,2-trifluoroethoxy)phenyl]methyl]-2,3-dihydro-1λ6,5-benzothiazepin-4-one] | 1060 | 24 |
| CC(C)(c1nnc(-c2cc3c(cc2F)S(=O)(=O)C[C@H](N)C(=O)N3Cc2ccc(Oc3ccccc3)cc2)o1)S(C)(=O)=O [Example 27, (3R)-3-amino-8-fluoro-7-[5-(1-methyl-1-methylsulfonyl-ethyl)-1,3,4-oxadiazol-2-yl]-1,1-dioxo-5-[(4-phenoxyphenyl)methyl]-2,3-dihydro-1λ6,5-benzothiazepin-4-one] | 2600 | 215 |
| CC(C)(c1nnc(-c2ccc3c(c2)N(Cc2ccc(Oc4cccc(Cl)c4Cl)cc2)C(=O)[C@@H](N)CS3(=O)=O)o1)S(C)(=O)=O [Example 32, (3R)-3-amino-5-[[4-(2,3-dichlorophenoxy)phenyl]methyl]-7-[5-(1-methyl-1-methylsulfonyl-ethyl)-1,3,4-oxadiazol-2-yl]-1,1-dioxo-2,3-dihydro-1λ6,5-benzothiazepin-4-one] | 1100 | 82 |
| CC(C)(c1nnc(-c2ccc3c(c2)N(Cc2ccc(Oc4cccc(Cl)c4)cc2)C(=O)[C@@H](N)CS3(=O)=O)o1)S(C)(=O)=O [Example 34, (3R)-3-amino-5-[[4-(3-chlorophenoxy)phenyl]methyl]-7-[5-(1-methyl-1-methylsulfonyl-ethyl)-1,3,4-oxadiazol-2-yl]-1,1-dioxo-2,3-dihydro-1λ6,5-benzothiazepin-4-one] | 1000 | 89 |
| CC(C)(c1nnc(-c2ccc3c(c2)N(Cc2ccc(Oc4ccc(F)c(Cl)c4)cc2)C(=O)[C@@H](N)CS3(=O)=O)o1)S(C)(=O)=O [Example 37, (3R)-3-amino-5-[[4-(3-chloro-4-fluoro-phenoxy)phenyl]methyl]-7-[5-(1-methyl-1-methylsulfonyl-ethyl)-1,3,4-oxadiazol-2-yl]-1,1-dioxo-2,3-dihydro-1λ6,5-benzothiazepin-4-one] | 8140 | 135 |
| CC(C)(c1nnc(-c2ccc3c(c2)N(Cc2ccc(Oc4cc(F)cc(C(F)(F)F)c4)cc2)C(=O)[C@@H](N)CS3(=O)=O)o1)S(C)(=O)=O [Example 39] | 813 | 106 |
| CC(C)(c1nnc(-c2ccc3c(c2)N(Cc2ccc(Oc4cccc(OC(F)(F)F)c4)cc2)C(=O)[C@@H](N)CS3(=O)=O)o1)S(C)(=O)=O [Example 40, (3R)-3-amino-7-[5-(1-methyl-1-methylsulfonyl-ethyl)-1,3,4-oxadiazol-2-yl]-1,1-dioxo-5-[[4-[3-(trifluoromethoxy)phenoxy]phenyl]methyl]-2,3-dihydro-126,5-benzothiazepin-4-one] | 801 | 196 |
| COc1cc(Cl)cc(Oc2ccc(CN3C(=O)[C@@H](N)CS(=O)(=O)c4ccc(-c5nnc(C(C)(C)S(C)(=O)=O)o5)cc43)cc2)c1 [Example 41, (3R)-3-amino-5-[[4-(3-chloro-5-methoxy-phenoxy)phenyl]methyl]-7-[5-(1-methyl-1-methylsulfonyl-ethyl)-1,3,4-oxadiazol-2-yl]-1,1-dioxo-2,3-dihydro-1λ6,5-benzothiazepin-4-one] | 1460 | 115 |
| COc1cccc(Oc2ccc(CN3C(=O)[C@@H](N)CS(=O)(=O)c4ccc(-c5nnc(C(C)(C)S(C)(=O)=O)o5)cc43)cc2)c1 [Example 42] | 3130 | 125 |

The next compounds have a lower EC50 than those just listed; values first:

| EC50 [nM] | SMILES | Emax [%] |
| --- | --- | --- |
| 745 | Cc1cccc(Oc2ccc(CN3C(=O)[C@@H](N)CS(=O)(=O)c4ccc(-c5nnc(C(C)(C)S(C)(=O)=O)o5)cc43)cc2)c1 [Example 31] | 176 |
| 637 | CC(C)(c1nnc(-c2cc3c(cc2F)S(=O)(=O)C[C@H](N)C(=O)N3Cc2ccc(-c3ccc(C(F)(F)F)nc3)cc2)o1)S(C)(=O)=O [Example 36] | 61 |
| 580 | CC(C)(c1nnc(-c2ccc3c(c2)N(Cc2ccc(Oc4cccc(F)c4)cc2)C(=O)[C@@H](N)CS3(=O)=O)o1)S(C)(=O)=O [Example 33, (3R)-3-amino-5-[[4-(3-fluorophenoxy)phenyl]methyl]-7-[5-(1-methyl-1-methylsulfonyl-ethyl)-1,3,4-oxadiazol-2-yl]-1,1-dioxo-2,3-dihydro-1λ6,5-benzothiazepin-4-one] | 58 |
| 545 | CC(C)(c1nnc(-c2cc3c(cc2F)S(=O)(=O)C[C@H](N)C(=O)N3Cc2ccc(OC(F)(F)C(F)F)cc2)o1)S(C)(=O)=O [Example 26, (3R)-3-amino-8-fluoro-7-[5-(1-methyl-1-methylsulfonyl-ethyl)-1,3,4-oxadiazol-2-yl]-1,1-dioxo-5-[[4-(1,1,2,2-tetrafluoroethoxy)phenyl]methyl]-2,3-dihydro-1λ6,5-benzothiazepin-4-one] | 159 |
| 485 | CC(C)(c1nc(-c2cc3c(cc2F)S(=O)(=O)C[C@H](N)C(=O)N3Cc2ccc(Oc3ccccc3)cc2)no1)S(C)(=O)=O [Example 30, (3R)-3-amino-8-fluoro-7-[5-(1-methyl-1-methylsulfonyl-ethyl)-1,2,4-oxadiazol-3-yl]-1,1-dioxo-5-[(4-phenoxyphenyl)methyl]-2,3-dihydro-1λ6,5-benzothiazepin-4-one] | 265 |
| 431 | COc1ccc(-c2ccc(CN3C(=O)[C@@H](N)CS(=O)(=O)c4cc(F)c(-c5nnc(C(C)(C)S(C)(=O)=O)o5)cc43)cc2)cc1 [Example 29, (3R)-3-amino-8-fluoro-5-[[4-(4-methoxyphenyl)phenyl]methyl]-7-[5-(1-methyl-1-methylsulfonyl-ethyl)-1,3,4-oxadiazol-2-yl]-1,1-dioxo-2,3-dihydro-1λ6,5-benzothiazepin-4-one] | 284 |
| 424 | CC(C)(c1nnc(-c2ccc3c(c2)N(Cc2ccc(Oc4cccc(C(F)(F)F)c4)cc2)C(=O)[C@@H](N)CS3(=O)=O)o1)S(C)(=O)=O [Example 38] | 155 |
| 131 | CC(C)(c1nc(-c2cc3c(cc2F)S(=O)(=O)C[C@H](N)C(=O)N3Cc2ccc(Cl)cc2)no1)S(C)(=O)=O [Example 43, (3R)-3-amino-5-[(4-chlorophenyl)methyl]-8-fluoro-7-[5-(1-methyl-1-methylsulfonyl-ethyl)-1,2,4-oxadiazol-3-yl]-1,1-dioxo-2,3-dihydro-1λ6,5-benzothiazepin-4-one] | 163 |
| 43 | CC(C)(c1nnc(-c2cc3c(cc2F)S(=O)(=O)C[C@H](N)C(=O)N3Cc2ccc(-c3ccc(C(F)(F)F)cc3)cc2)o1)S(C)(=O)=O [Example 35, (3R)-3-amino-8-fluoro-7-[5-(1-methyl-1-methylsulfonyl-ethyl)-1,3,4-oxadiazol-2-yl]-1,1-dioxo-5-[[4-[4-(trifluoromethyl)phenyl]phenyl]methyl]-2,3-dihydro-1λ6,5-benzothiazepin-4-one] | 239 |

Source: patent US20260035364A1, “BICYCLIC TETRAHYDROTHIAZEPINE DERIVATIVES” (Hoffmann-La Roche Inc., priority 2022, published 2026)
